Assay results published in paper PMC11721617, “Novel isobavachalcone derivatives induce apoptosis and necroptosis in human non-small cell lung cancer H1975 cells” (Journal of Enzyme Inhibition and Medicinal Chemistry, 2023).
Where two headings read alike, the source gives them in different places.

Key:
[1] = test system: H1975; assay: MTT assay, cytotoxic activity / cell viability; format: cell-based, human; conditions: Homo sapiens, NCI-H1975
Description: (§1) Four cell lines (H1975, A549, PC9, and Aml-12) were cultured in RPMI 1640 medium containing 10% foetal bovine serum (FBS) and 1% penicillin/streptomycin in an atmosphere with 5% CO2 and 95% relative humidity at 37 °C.
(§2) Cell viability was examined using the MTT assay. The cells grown in the logarithmic phase were seeded in 96-well plates at a density of 5 × 10^3 per well. The cells were treated with various concentrations (0, 5, 10, 20, 40, and 80 μM) of the compound at different times, respectively. At the end of time point, MTT solution (5 mg/ml) was added to each well and incubated at 37 °C for 4 h. Next, the media was removed, and formazan was dissolved in DMSO. Finally, absorbance was measured with a microplate spectrophotometer at 490 nm (Synergy HT, BioTek, VT, USA).

[2] = test system: A549; assay: MTT assay, cytotoxic activity; format: cell-based, human; conditions: Homo sapiens; A549 cells, 72 h, MTT
Description: as §1, §2

[3] = test system: PC9; assay: MTT assay, cytotoxic activity; format: cell-based; conditions: Homo sapiens, PC-9, PC9 cells, 72 h
Description: as §1, §2

[4] = MTT assay, cytotoxic activity on normal hepatocytes; format: cell-based, mouse; conditions: Aml-12 cells (normal hepatocytes); normal mouse hepatocytes Aml-12 cells, 72 h
Description: as §1, §2

[5] = H1975 cells, 72 h, MTT, read-out: Cytotoxic activity IC50, H1975

Row | Compound | IC50 [1, 5] [µM] | IC50 [2] [µM] | IC50 [3] [µM] | IC50 at 72 h [4] [µM] | IC50 ([1]; read-out: IC50 values against H1975 and A549 cell lines (range over both)) [µM]
1 | CC(C)=CCc1c(O)c(C(=O)/C=C/c2ccc(O)cc2)cc(C(c2ccc(C(F)(F)F)cc2)N2CCOCC2)c1O (stereo not drawn) [Compound 17, (E)-1-(2,4-Dihydroxy-3-(3-methylbut-2-en-1-yl)-5-(morpholino(4-(trifluoromethyl)phenyl)methyl)phenyl)-3-(4-hydroxyphenyl)prop-2-en-1-one] | 7.01 | 30.1 | 20.6 |  | 
2 | CC(C)=CCc1c(O)c(C(=O)/C=C/c2ccc(O)cc2)cc(C(c2ccc(Cl)cc2)N2CCOCC2)c1O (stereo not drawn) [Compound 11, (E)-1-(5-((4-Chlorophenyl)(morpholino)methyl)-2,4-dihydroxy-3-(3-methylbut-2-en-1-yl)phenyl)-3-(4-hydroxyphenyl)prop-2-en-1-one] | 11.4 | 21.8 | 19.7 |  | 
3 | COc1ccc(/C=C/C(=O)c2ccc(OC)c(CC=C(C)C)c2O)cc1 [Compound 3, (E)-1-(2-Hydroxy-4-methoxy-3-(3-methylbut-2-en-1-yl)phenyl)-3-(4-methoxyphenyl) prop-2-en-1-one] | > 50 | > 50 | > 50 |  | 
4 | CC(C)=CCc1c(O)c(C=O)cc(C(=O)/C=C/c2ccc(O)cc2)c1O [Compound 6, (E)-2,4-Dihydroxy-5-(3-(4-hydroxyphenyl)acryloyl)-3-(3-methylbut-2-en-1-yl)benzylaldehyde] | 5.79 | 24.1 | 18.4 |  | 
5 | CC(C)=CCc1c(O)ccc(C(=O)/C=C/c2ccc(O)cc2)c1O [IBC, isobavachalcone] | 17.9 | 21.7 | 9.22 | 17.7 ± 1.2 | 
6 | CC(=O)O[C@H]1C(=O)[C@@]2(C)[C@H]([C@H](OC(=O)c3ccccc3)[C@]3(O)C[C@H](OC(=O)[C@H](O)[C@@H](NC(=O)c4ccccc4)c4ccccc4)C(C)=C1C3(C)C)[C@]1(OC(C)=O)CO[C@@H]1C[C@@H]2O [Paclitaxel, reference compound] | 0.01 | 1.61 | 0.06 | 2.51 ± 0.13 | 
7 | CC(C)=CCc1c(O)c(C(=O)/C=C/c2ccc(O)cc2)cc(C(c2ccc(C(=O)O)cc2)N2CCOCC2)c1O (stereo not drawn) [Compound 14, (E)-4-((2,4-Dihydroxy-5-(3-(4-hydroxyphenyl)acryloyl)-3-(3-methylbut-2-en-1-yl)phenyl)(morpholino)methyl)benzoic acid] | 23.6 | > 50 | > 50 |  | 
8 | CC(C)=CCc1c(O)c(/C=N/NC(=N)N)cc(C(=O)/C=C/c2ccc(O)cc2)c1O [Compound 7, 2-((E)-2,4-Dihydroxy-5-((E)-3-(4-hydroxyphenyl)acryloyl)-3-(3-methylbut-2-en-1-yl)benzylidene)hydrazine-1-carboximidamide] | 7.33 | 15 | 8.3 |  | 4.35 to 15
9 | COc1ccc(C(=O)/C=C/c2ccc(O)cc2)c(O)c1CC=C(C)C [Compound 2, (E)-1-(2-Hydroxy-4-methoxy-3-(3-methylbut-2-en-1-yl)phenyl)-3-(4-hydroxyphenyl) prop-2-en-1-one] | 40.5 | > 50 | 35.3 |  | 
10 | CC(C)=CCc1c(O)ccc(C(=O)/C=C/c2ccc(OCc3ccccc3)cc2)c1O [Compound 5, (E)-3-(4-(Benzyloxy)phenyl)-1-(2,4-dihydroxy-3-(3-methylbut-2-en-1-yl)phenyl)prop-2-en-1-one] | 13.6 | 33.1 | 24.9 |  | 
11 | COc1ccc(/C=C/C(=O)c2ccc(O)c(CC=C(C)C)c2O)cc1 [Compound 1, (E)-1-(2,4-Dihydroxy-3-(3-methylbut-2-en-1-yl)phenyl)-3-(4-methoxyphenyl)prop-2-en-1-one] | 38 | 41.6 | 14.3 |  | 
12 | CC(C)=CCc1c(O)c(C(=O)/C=C/c2ccc(O)cc2)cc(C(c2ccc(F)cc2)N2CCOCC2)c1O (stereo not drawn) [Compound 12, (E)-1-(5-((4-Fluorophenyl)(morpholino)methyl)-2,4-dihydroxy-3-(3-methylbut-2-en-1-yl)phenyl)-3-(4-hydroxyphenyl)prop-2-en-1-one] | 12.1 | 33 | 20.7 |  | 
13 | CC(C)=CCc1c(O)c(C(=O)/C=C/c2ccc(O)cc2)cc(C(c2ccncc2)N2CCOCC2)c1O (stereo not drawn) [Compound 8, (E)-1-(2,4-Dihydroxy-3-(3-methylbut-2-en-1-yl)-5-(morpholino(pyridin-4-yl)methyl)phenyl)-3-(4-hydroxyphenyl)prop-2-en-1-one] | 13.8 | 39.2 | 29.9 |  | 
14 | CC(C)=CCc1c(O)c(C(=O)/C=C/c2ccc(O)cc2)cc(C(c2ccc([N+](=O)[O-])cc2)N2CCOCC2)c1O (stereo not drawn) [Compound 13, (E)-1-(2,4-Dihydroxy-3-(3-methylbut-2-en-1-yl)-5-(morpholino(4-nitrophenyl)methyl)phenyl)-3-(4-hydroxyphenyl)prop-2-en-1-one] | 7.39 | 44.5 | 23.5 |  | 
15 | CC(C)=CCc1c(O)c(C(=O)/C=C/c2ccc(O)cc2)cc(C(c2ccc(Br)cc2)N2CCOCC2)c1O (stereo not drawn) [Compound 10, (E)-1-(5-((4-Bromophenyl)(morpholino)methyl)-2,4-dihydroxy-3-(3-methylbut-2-en-1-yl)phenyl)-3-(4-hydroxyphenyl)prop-2-en-1-one] | 6.76 | 34.8 | 18.6 |  | 
16 | CC(C)=CCc1c(O)c(C(=O)/C=C/c2ccc(O)cc2)cc(C(c2ccccc2)N2CCOCC2)c1O (stereo not drawn) [Compound 9, (E)-1-(2,4-Dihydroxy-3-(3-methylbut-2-en-1-yl)-5-(morpholino(phenyl)methyl)phenyl)-3-(4-hydroxyphenyl)prop-2-en-1-one] | 12.1 | 26.9 | 22.8 |  | 
17 | CC(C)=CCc1c(OCc2ccccc2)ccc(C(=O)/C=C/c2ccc(OCc3ccccc3)cc2)c1O [Compound 4, (E)-1-(4-(Benzyloxy)-2-hydroxy-3-(3-methylbut-2-en-1-yl)phenyl)-3-(4-(benzyl-oxy)phenyl)prop-2-en-1-one] | > 50 | > 50 | > 50 |  | 
18 | COc1ccc(C(c2cc(C(=O)/C=C/c3ccc(O)cc3)c(O)c(CC=C(C)C)c2O)N2CCOCC2)cc1 (stereo not drawn) [Compound 15, (E)-1-(2,4-Dihydroxy-5-((4-methoxyphenyl)(morpholino)methyl)-3-(3-methylbut-2-en-1-yl)phenyl)-3-(4-hydroxyphenyl)prop-2-en-1-one] | 11.7 | 28.9 | 23.2 |  | 
